The supplement of paper PMC10307832

compound: C1=CC2=C(C=C(C(=C2N=C1)O)N=NC3=CC4=C(C=C3)C=C(C=C4)S(=O)(=O)O)S(=O)(=O)O + N=C(N)NC(=N)NCCc1ccccc1 [Phenformin] (partner 250 µM); experiment: relative viability (nuclei count vs DMSO), 5 days (fraction); higher = more cells survive; conditions: first compound 0.08 µM
Method in brief: (§1)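 One day after seeding in 1536-well plates, lung cancer cell lines were dosed by pin tool. Dosing was either single-drug or a fixed anchor-drug dose plus five library-drug doses (not always all listed) in √10 steps. After 5 days, nuclei were stained in one fix-and-stain step and counted on 4× images, and relative viability is the nuclei count of treated wells over that of vehicle wells, given as the median of duplicate plates.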

Cell Line | relative viability
NCI-H2342 | 0.629
NCI-H1623 | 0.565
NCI-H727 | 0.564
NCI-H1650 | 0.427
NCI-H1993 | 0.492
SW 1573 | 0.406
NCI-H838 | 0.497
LCLC-103H | 0.33
NCI-H520 | 0.493
NCI-H2126 | 0.564
EMC-BAC-2 | 0.587
NCI-H2085 | 0.795
HCC-366 | 0.646
NCI-H1666 | 0.536
NCI-H596 | 0.749
LK-2 | 0.639
NCI-H2087 | 0.469
SK-MES-1 | 0.731

Cell Line | relative viability
H3255 | 0.348
COR-L23 | 0.488
COR-L 105 | 0.459
LOU-NH91 | 0.644
ChaGo-K-1 | 0.444
NCI-H2170 | 0.46
NCI-H2405 | 0.382
HOP-62 | 0.836
HCC-44 | 0.126
A549 | 0.203
NCI-H522 | 0.658
LU99A | 0.989
BEN | 0.254
HARA | 0.467
SW 900 | 0.576
HCC-78 | 0.725
NCI-H1563 | 0.63

same assay, conditions: first compound 0.253 µM

Cell Line | relative viability
NCI-H2342 | 0.582
NCI-H1623 | 0.541
NCI-H727 | 0.474
NCI-H1650 | 0.444
NCI-H1993 | 0.488
SW 1573 | 0.478
NCI-H838 | 0.558
LCLC-103H | 0.356
NCI-H520 | 0.496
NCI-H2126 | 0.535
EMC-BAC-2 | 0.561
NCI-H2085 | 0.743
HCC-366 | 0.618
NCI-H1666 | 0.579
NCI-H596 | 0.735
LK-2 | 0.36
NCI-H2087 | 0.447
SK-MES-1 | 0.674

Cell Line | relative viability
H3255 | 0.377
COR-L23 | 0.43
COR-L 105 | 0.464
LOU-NH91 | 0.74
ChaGo-K-1 | 0.491
NCI-H2170 | 0.404
NCI-H2405 | 0.384
HOP-62 | 0.584
HCC-44 | 0.218
A549 | 0.155
NCI-H522 | 0.64
LU99A | 0.796
BEN | 0.274
HARA | 0.459
SW 900 | 0.669
HCC-78 | 0.617
NCI-H1563 | 0.677

same assay, conditions: first compound 0.8 µM

Cell Line | relative viability
NCI-H2342 | 0.537
NCI-H1623 | 0.609
NCI-H727 | 0.502
NCI-H1650 | 0.42
NCI-H1993 | 0.537
SW 1573 | 0.418
NCI-H838 | 0.557
LCLC-103H | 0.298
NCI-H520 | 0.585
NCI-H2126 | 0.514
EMC-BAC-2 | 0.514
NCI-H2085 | 0.687
HCC-366 | 0.585
NCI-H1666 | 0.586
NCI-H596 | 0.697
LK-2 | 0.303
NCI-H2087 | 0.452
SK-MES-1 | 0.672

Cell Line | relative viability
H3255 | 0.416
COR-L23 | 0.422
COR-L 105 | 0.421
LOU-NH91 | 0.706
ChaGo-K-1 | 0.525
NCI-H2170 | 0.417
NCI-H2405 | 0.371
HOP-62 | 0.618
HCC-44 | 0.249
A549 | 0.189
NCI-H522 | 0.71
LU99A | 0.869
BEN | 0.267
HARA | 0.464
SW 900 | 0.517
HCC-78 | 0.651
NCI-H1563 | 0.684

same assay, conditions: first compound 2.53 µM

Cell Line | relative viability
NCI-H2342 | 0.621
NCI-H1623 | 0.589
NCI-H727 | 0.627
NCI-H1650 | 0.418
NCI-H1993 | 0.528
SW 1573 | 0.3
NCI-H838 | 0.483
LCLC-103H | 0.358
NCI-H520 | 0.321
NCI-H2126 | 0.557
EMC-BAC-2 | 0.526
NCI-H2085 | 0.752
HCC-366 | 0.631
NCI-H1666 | 0.596
NCI-H596 | 0.841
LK-2 | 0.381
NCI-H2087 | 0.455
SK-MES-1 | 0.692

Cell Line | relative viability
H3255 | 0.394
COR-L23 | 0.419
COR-L 105 | 0.441
LOU-NH91 | 0.712
ChaGo-K-1 | 0.531
NCI-H2170 | 0.424
NCI-H2405 | 0.342
HOP-62 | 0.645
HCC-44 | 0.17
A549 | 0.186
NCI-H522 | 0.603
LU99A | 0.721
BEN | 0.298
HARA | 0.544
SW 900 | 0.552
HCC-78 | 0.74
NCI-H1563 | 0.626

same assay, conditions: first compound 8 µM

Cell Line | relative viability
NCI-H2342 | 0.528
NCI-H1623 | 0.278
NCI-H727 | 0.572
NCI-H1650 | 0.322
NCI-H1993 | 0.527
SW 1573 | 0.296
NCI-H838 | 0.551
LCLC-103H | 0.369
NCI-H520 | 0.727
NCI-H2126 | 0.559
EMC-BAC-2 | 0.427
NCI-H2085 | 0.755
HCC-366 | 0.589
NCI-H1666 | 0.566
NCI-H596 | 0.759
LK-2 | 0.332
NCI-H2087 | 0.459
SK-MES-1 | 0.652

Cell Line | relative viability
H3255 | 0.421
COR-L23 | 0.45
COR-L 105 | 0.463
LOU-NH91 | 0.607
ChaGo-K-1 | 0.359
NCI-H2170 | 0.391
NCI-H2405 | 0.362
HOP-62 | 0.53
HCC-44 | 0.184
A549 | 0.0602
NCI-H522 | 0.612
LU99A | 0.631
BEN | 0.234
HARA | 0.479
SW 900 | 0.275
HCC-78 | 0.685
NCI-H1563 | 0.629

compound: C1=CC2=C(C=C(C(=C2N=C1)O)N=NC3=CC4=C(C=C3)C=C(C=C4)S(=O)(=O)O)S(=O)(=O)O + COc1cccc2cc(-c3nc([C@H]4CC[C@H](C(=O)O)CC4)n4ncnc(N)c34)[nH]c12 [OSI-027] (partner 0.5 µM); experiment: as above; conditions: first compound 0.08 µM
Method in brief: as §1

Cell Line | relative viability
NCI-H2342 | 0.529
NCI-H1623 | 0.466
NCI-H727 | 0.623
NCI-H1650 | 0.718
NCI-H1993 | 0.553
SW 1573 | 0.734
NCI-H838 | 0.373
LCLC-103H | 0.475
NCI-H520 | 0.215
NCI-H2126 | 0.723
EMC-BAC-2 | 0.408
NCI-H2085 | 0.901
HCC-366 | 0.989
NCI-H1666 | 0.897
NCI-H596 | 0.812
LK-2 | 0.21
NCI-H2087 | 0.563

Cell Line | relative viability
NCI-H1648 | 0.259
SK-MES-1 | 0.69
H3255 | 0.544
COR-L23 | 0.884
COR-L 105 | 0.657
LOU-NH91 | 0.736
ChaGo-K-1 | 0.641
NCI-H2170 | 0.958
NCI-H2405 | 0.649
HOP-62 | 0.843
NCI-H522 | 0.683
LU99A | 0.311
BEN | 0.289
HARA | 0.633
SW 900 | 0.55
HCC-78 | 0.436
NCI-H1563 | 0.786

same assay, conditions: first compound 0.253 µM

Cell Line | relative viability
NCI-H2342 | 0.657
NCI-H1623 | 0.391
NCI-H727 | 0.549
NCI-H1650 | 0.542
NCI-H1993 | 0.547
SW 1573 | 0.622
NCI-H838 | 0.464
LCLC-103H | 0.485
NCI-H520 | 0.219
NCI-H2126 | 0.662
EMC-BAC-2 | 0.397
NCI-H2085 | 0.716
HCC-366 | 0.932
NCI-H1666 | 0.838
NCI-H596 | 0.653
LK-2 | 0.202
NCI-H2087 | 0.536
NCI-H1648 | 0.251

Cell Line | relative viability
SK-MES-1 | 0.633
H3255 | 0.633
COR-L23 | 0.781
COR-L 105 | 0.576
LOU-NH91 | 0.751
ChaGo-K-1 | 0.555
NCI-H2170 | 0.676
NCI-H2405 | 0.599
HOP-62 | 0.817
HCC-44 | 0.651
NCI-H522 | 0.623
LU99A | 0.301
BEN | 0.303
HARA | 0.524
SW 900 | 0.554
HCC-78 | 0.368
NCI-H1563 | 0.732

same assay, conditions: first compound 0.8 µM

Cell Line | relative viability
NCI-H2342 | 0.603
NCI-H1623 | 0.419
NCI-H727 | 0.54
NCI-H1650 | 0.667
NCI-H1993 | 0.556
SW 1573 | 0.61
NCI-H838 | 0.354
LCLC-103H | 0.444
NCI-H520 | 0.201
NCI-H2126 | 0.588
EMC-BAC-2 | 0.386
NCI-H2085 | 0.716
HCC-366 | 0.89
NCI-H1666 | 0.793
NCI-H596 | 0.613
LK-2 | 0.189
NCI-H2087 | 0.477
NCI-H1648 | 0.263

Cell Line | relative viability
SK-MES-1 | 0.588
H3255 | 0.595
COR-L23 | 0.725
COR-L 105 | 0.788
LOU-NH91 | 0.713
ChaGo-K-1 | 0.519
NCI-H2170 | 0.666
NCI-H2405 | 0.602
HOP-62 | 0.67
HCC-44 | 0.5
NCI-H522 | 0.565
LU99A | 0.35
BEN | 0.244
HARA | 0.513
SW 900 | 0.608
HCC-78 | 0.417
NCI-H1563 | 0.818

same assay, conditions: first compound 2.53 µM

Cell Line | relative viability
NCI-H2342 | 0.563
NCI-H1623 | 0.468
NCI-H727 | 0.592
NCI-H1650 | 0.651
NCI-H1993 | 0.601
SW 1573 | 0.463
NCI-H838 | 0.409
LCLC-103H | 0.463
NCI-H520 | 0.274
NCI-H2126 | 0.658
EMC-BAC-2 | 0.363
NCI-H2085 | 0.974
HCC-366 | 0.861
NCI-H1666 | 0.827
NCI-H596 | 0.695
LK-2 | 0.211
NCI-H2087 | 0.61
NCI-H1648 | 0.253

Cell Line | relative viability
SK-MES-1 | 0.681
H3255 | 0.567
COR-L23 | 0.612
COR-L 105 | 0.635
LOU-NH91 | 0.668
ChaGo-K-1 | 0.556
NCI-H2170 | 0.756
NCI-H2405 | 0.644
HOP-62 | 0.807
HCC-44 | 0.55
NCI-H522 | 0.724
LU99A | 0.292
BEN | 0.297
HARA | 0.522
SW 900 | 0.517
HCC-78 | 0.346
NCI-H1563 | 0.77

same assay, conditions: first compound 8 µM

Cell Line | relative viability
NCI-H2342 | 0.674
NCI-H1623 | 0.438
NCI-H727 | 0.578
NCI-H1650 | 0.65
NCI-H1993 | 0.584
SW 1573 | 0.401
NCI-H838 | 0.392
LCLC-103H | 0.517
